According to patent US10253081B2, “Glucagon analogues” (Zealand Pharma A/S, priority 2012, dated 2019):
Values joined by “and” are separate entries in the source; they are usually repeats but may differ in a detail not shown here. Equal values may be shown once. *1 amine or outer side, *2 acyl side, *3 side chain or, on linkers, in order; H or OH if unused. Where a SMILES comes first, the peptide text is derived from it. Side-chain parts run from the residue outwards. [ ]: non-standard residue; d: D form. The star is where a group is joined. γGlu = O=C(O)[C@H](CCC(=O)[*:2])N[*:1]; Palmitoyl = CCCCCCCCCCCCCCCC(=O)*; Aib = CC(C)(N)C(=O)O

Columns and labels:
[1] = target: T1, human glucagon receptor (Glucagon-R) (Homo sapiens, UniProt P47871); assay: Glucagon receptor efficacy assay (cAMP AlphaScreen, CHO cells); format: cell-based; settings: Table 1A; CHO cells expressing human Glucagon-R, cAMP; read-out: EC50 hGCGR CHO-K1
T1 construct: expressed in transfected cells
T1 sequence (P47871 26-477): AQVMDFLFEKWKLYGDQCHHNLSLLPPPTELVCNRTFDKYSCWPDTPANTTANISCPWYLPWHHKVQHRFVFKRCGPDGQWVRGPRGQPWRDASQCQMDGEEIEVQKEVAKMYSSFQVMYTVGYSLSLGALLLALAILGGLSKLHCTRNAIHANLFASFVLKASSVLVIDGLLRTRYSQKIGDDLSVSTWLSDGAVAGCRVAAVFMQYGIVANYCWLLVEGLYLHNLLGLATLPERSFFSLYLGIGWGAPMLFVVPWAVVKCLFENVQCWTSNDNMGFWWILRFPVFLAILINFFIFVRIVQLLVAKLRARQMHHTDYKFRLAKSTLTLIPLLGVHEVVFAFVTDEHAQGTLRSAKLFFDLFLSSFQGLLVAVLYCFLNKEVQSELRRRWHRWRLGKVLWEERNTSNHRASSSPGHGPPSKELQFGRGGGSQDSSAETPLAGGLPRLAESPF
Procedure, shortened: (§1)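 Stably transfected CHO clones expressing human GLP-1R or glucagon receptor were treated with increasing peptide concentrations for 15 min at room temperature in KRBH containing 0.1 mM IBMX. After lysis, cAMP was quantified by AlphaScreen; EC50 and efficacy relative to GLP-1 or glucagon reference came from curve fitting.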

[2] = target: T2, human glucagon-like peptide 1 receptor (GLP-1R) (Homo sapiens, UniProt P43220); assay: GLP-1 receptor efficacy assay (cAMP AlphaScreen, CHO cells); format: cell-based; settings: Table 1A; for EC50: CHO cells expressing human GLP-1-R, cAMP, read-out: EC50 hGLP-1R CHO-K1; for Ratio GLP-1/Glucagon: EC50 [GLP-1R]/EC50 [Glucagon-R]
T2 construct: expressed in transfected cells
T2 sequence (P43220 24-463): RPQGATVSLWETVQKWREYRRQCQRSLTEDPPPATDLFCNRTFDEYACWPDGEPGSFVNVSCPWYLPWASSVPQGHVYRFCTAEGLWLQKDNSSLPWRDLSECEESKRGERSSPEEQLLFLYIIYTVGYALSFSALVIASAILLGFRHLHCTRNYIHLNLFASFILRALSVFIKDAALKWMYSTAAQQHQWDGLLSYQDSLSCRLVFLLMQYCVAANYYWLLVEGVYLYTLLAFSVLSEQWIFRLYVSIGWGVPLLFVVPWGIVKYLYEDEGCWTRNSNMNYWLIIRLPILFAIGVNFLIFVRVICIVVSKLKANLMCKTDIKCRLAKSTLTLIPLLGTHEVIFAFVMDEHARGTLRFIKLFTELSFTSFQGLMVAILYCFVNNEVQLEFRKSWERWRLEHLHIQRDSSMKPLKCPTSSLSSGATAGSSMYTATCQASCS
Procedure, shortened: as §1

[3] = target: T3, endogenous glucagon receptor (Rattus norvegicus, UniProt P30082); assay: Agonistic activity on endogenous glucagon receptor (glycogen synthesis rate in primary rat hepatocytes); format: cell-based; settings: inhibition of glycogen synthesis rate, 3 hours, read-out: EC50 GLP-1R Rat hepat.
T3 construct: Agonistic activity of the test compounds on endogenous glucagon receptor; endogenous in cells; host or cells: primary rat hepatocytes
T3 sequence (P30082 27-485): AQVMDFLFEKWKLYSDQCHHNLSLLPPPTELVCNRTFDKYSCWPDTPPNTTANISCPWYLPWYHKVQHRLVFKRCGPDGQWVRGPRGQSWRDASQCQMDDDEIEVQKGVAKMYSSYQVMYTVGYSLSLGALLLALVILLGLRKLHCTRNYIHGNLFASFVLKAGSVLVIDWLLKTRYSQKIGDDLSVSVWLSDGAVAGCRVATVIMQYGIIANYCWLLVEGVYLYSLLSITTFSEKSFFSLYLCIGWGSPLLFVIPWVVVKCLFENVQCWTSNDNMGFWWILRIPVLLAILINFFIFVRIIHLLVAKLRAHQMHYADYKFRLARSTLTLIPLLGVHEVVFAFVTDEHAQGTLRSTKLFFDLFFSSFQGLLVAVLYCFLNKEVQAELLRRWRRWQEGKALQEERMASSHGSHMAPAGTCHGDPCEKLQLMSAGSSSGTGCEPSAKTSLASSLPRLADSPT
Procedure, shortened: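 Primary rat hepatocytes (40,000 cells/well, cultured 24 h) incubated 3 h with compound in KRBH buffer with 0.1% BSA, 22.5 mM glucose and D-[U14C]glucose. 14C incorporated into precipitated glycogen counted, background-subtracted and expressed as % of 0.1% DMSO vehicle (100% CTL). pEC50 from cpm versus log concentration; agonism lowers glycogen synthesis.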

[4] = Oral glucose tolerance test (OGTT); format: in vivo, C57BL/6J mice; settings: blood glucose AUC 0-120 min, 10 nmol/kg s.c. 4 h before oral glucose 2 g/kg
Protocol: Male C57BL/6J mice were fasted for 10 h before they received an oral glucose bolus of 2 g/kg body weight. Peptides were dissolved in saline buffered with 25 mM phosphate and administered at a dose of 10 nmol/kg body weight by subcutaneous injection 4 h before the glucose bolus. Control animals received a vehicle injection only. Group size was 7 animals per group. A pre-dose and a pre-glucose (0 min) blood sample were obtained by tail bleeding and blood glucose was measured with a glucometer. Additional samples of tail blood for measuring blood glucose were obtained 15 min, 30 min, 60 min, 90 min and 120 min after the glucose challenge. […] Calculation of AUC was done by the trapezoidal rule without baseline correction. The data are presented as mean±S.E.M. Statistical comparisons were conducted by one-way ANOVA followed by Tukey's post test. Vehicle alone was used as a control.

Compound | EC50 [1] [nM] | EC50 [2] [nM] | Ratio GLP-1/Glucagon [2] | EC50 [3] | AUC (% Ctrl) [4] [% Ctrl]
CCCCCCCCCCCCCCCC(=O)N[C@@H](CCC(=O)NCCCC[C@H](NC(=O)[C@H](CO)NC(=O)[C@H](CC(=O)O)NC(=O)[C@H](CC(C)C)NC(=O)[C@H](Cc1ccc(O)cc1)NC(=O)[C@H](CCCCN)NC(=O)[C@H](CO)NC(=O)[C@H](Cc1ccc(O)cc1)NC(=O)[C@H](CC(=O)O)NC(=O)[C@H](CO)NC(=O)[C@@H](NC(=O)[C@H](Cc1ccccc1)NC(=O)[C@@H](NC(=O)CNC(=O)[C@H](CCC(N)=O)NC(=O)C(C)(C)NC(=O)[C@@H](N)Cc1c[nH]cn1)[C@@H](C)O)[C@@H](C)O)C(=O)N[C@@H](C)C(=O)N[C@@H](C)C(=O)N[C@@H](CCC(=O)O)C(=O)N[C@@H](CC(=O)O)C(=O)N[C@@H](Cc1ccccc1)C(=O)N[C@H](C(=O)N[C@@H](CCC(=O)O)C(=O)N[C@@H](Cc1c[nH]c2ccccc12)C(=O)N[C@@H](CC(C)C)C(=O)N[C@@H](CCC(=O)O)C(=O)N[C@@H](CO)C(=O)N[C@@H](C)C(N)=O)C(C)C)C(=O)O [Compound 16, H-H-Aib-QGTFTSDYSKYLDS-K(Hexadecanoyl-isoGlu)-AAEDFVEWLESA-NH2] (H-H[Aib]QGTFTSDYSKYLDSK([γGlu-Palmitoyl])AAEDFVEWLESA-NH2) | 1.58 | 0.2 | 0.13 | 1.85 nM | 44
CCCCCCCCCCCCCCCC(=O)N[C@@H](CCC(=O)NCCCC[C@H](NC(=O)[C@H](CO)NC(=O)[C@H](CC(=O)O)NC(=O)[C@H](CC(C)C)NC(=O)[C@H](Cc1ccc(O)cc1)NC(=O)[C@H](CCCCN)NC(=O)[C@H](CO)NC(=O)[C@H](Cc1ccc(O)cc1)NC(=O)[C@H](CC(=O)O)NC(=O)[C@H](CO)NC(=O)[C@@H](NC(=O)[C@H](Cc1ccccc1)NC(=O)[C@@H](NC(=O)CNC(=O)[C@H](CCC(N)=O)NC(=O)C(C)(C)NC(=O)[C@@H](N)Cc1c[nH]cn1)[C@@H](C)O)[C@@H](C)O)C(=O)N[C@@H](C)C(=O)N[C@@H](C)C(=O)N[C@@H](Cc1c[nH]cn1)C(=O)N[C@@H](CC(=O)O)C(=O)N[C@@H](Cc1ccccc1)C(=O)N[C@H](C(=O)N[C@@H](CCC(=O)O)C(=O)N[C@@H](Cc1c[nH]c2ccccc12)C(=O)N[C@@H](CC(C)C)C(=O)N[C@@H](CCC(=O)O)C(=O)N[C@@H](CO)C(=O)N[C@@H](C)C(N)=O)C(C)C)C(=O)O [Compound 5, H-H-Aib-QGTFTSDYSKYLDS-K(Hexadecanoyl-isoGlu)-AAHDFVEWLESA-NH2] (H-H[Aib]QGTFTSDYSKYLDSK([γGlu-Palmitoyl])AAHDFVEWLESA-NH2) | 0.46 | 0.16 | 0.35 | 0.03 nM | 46
CCCCCCCCCCCCCCCC(=O)N[C@@H](CCC(=O)NCCCC[C@H](NC(=O)[C@H](CCC(=O)O)NC(=O)[C@H](CC(=O)O)NC(=O)[C@H](CC(C)C)NC(=O)[C@H](Cc1ccc(O)cc1)NC(=O)[C@H](CCCCN)NC(=O)[C@H](CO)NC(=O)[C@H](Cc1ccc(O)cc1)NC(=O)[C@H](CC(=O)O)NC(=O)[C@H](CO)NC(=O)[C@@H](NC(=O)[C@H](Cc1ccccc1)NC(=O)[C@@H](NC(=O)CNC(=O)[C@H](CCC(N)=O)NC(=O)C(C)(C)NC(=O)[C@@H](N)Cc1c[nH]cn1)[C@@H](C)O)[C@@H](C)O)C(=O)N[C@@H](C)C(=O)N[C@@H](C)C(=O)N[C@@H](CCCCN)C(=O)N[C@@H](CC(=O)O)C(=O)N[C@@H](Cc1ccccc1)C(=O)N[C@H](C(=O)N[C@@H](CCC(=O)O)C(=O)N[C@@H](Cc1c[nH]c2ccccc12)C(=O)N[C@@H](CC(C)C)C(=O)N[C@@H](CC(C)C)C(=O)N[C@@H](CO)C(=O)N[C@@H](C)C(N)=O)[C@@H](C)CC)C(=O)O [Compound 4, H-H-Aib-QGTFTSDYSKYLDE-K(Hexadecanoyl-isoGlu)-AAKDFIEWLLSA-NH2] (H-H[Aib]QGTFTSDYSKYLDEK([γGlu-Palmitoyl])AAKDFIEWLLSA-NH2) | 1.56 | 0.38 | 0.24 | 0.35 nM | 65

Further compounds by falling EC50 [1], results first:

EC50 [1] [nM] | EC50 [2] [nM] | Ratio GLP-1/Glucagon [2] | EC50 [3] | Compound | AUC (% Ctrl) [4] [% Ctrl]
0.9 | 0.54 | 0.60 | 0.13 nM and 0.02 nM | CCCCCCCCCCCCCCCC(=O)N[C@@H](CCC(=O)NCCCC[C@H](NC(=O)[C@H](CO)NC(=O)[C@H](CC(=O)O)NC(=O)[C@H](CC(C)C)NC(=O)[C@H](Cc1ccc(O)cc1)NC(=O)[C@H](CCCCN)NC(=O)[C@H](CO)NC(=O)[C@H](Cc1ccc(O)cc1)NC(=O)[C@H](CC(=O)O)NC(=O)[C@H](CO)NC(=O)[C@@H](NC(=O)[C@H](Cc1ccccc1)NC(=O)[C@@H](NC(=O)CNC(=O)[C@H](CCC(N)=O)NC(=O)C(C)(C)NC(=O)[C@@H](N)Cc1c[nH]cn1)[C@@H](C)O)[C@@H](C)O)C(=O)N[C@@H](C)C(=O)N[C@@H](C)C(=O)N[C@@H](Cc1c[nH]cn1)C(=O)N[C@@H](CC(=O)O)C(=O)N[C@@H](Cc1ccccc1)C(=O)N[C@H](C(=O)N[C@@H](CCC(=O)O)C(=O)N[C@@H](Cc1c[nH]c2ccccc12)C(=O)N[C@@H](CC(C)C)C(=O)N[C@@H](CC(C)C)C(=O)N[C@@H](CO)C(=O)O)C(C)C)C(=O)O [Compound 1, H-H-Aib-QGTFTSDYSKYLDS-K(Hexadecanoyl-isoGlu)-AAHDFVEWLLS-OH] (H-H[Aib]QGTFTSDYSKYLDSK([γGlu-Palmitoyl])AAHDFVEWLLS-OH) | 66
0.31 | 0.77 | 2.48 | 0.43 nM | CCCCCCCCCCCCCCCC(=O)N[C@@H](CCC(=O)NCCCC[C@H](NC(=O)[C@H](CO)NC(=O)[C@H](CC(=O)O)NC(=O)[C@H](CC(C)C)NC(=O)[C@H](Cc1ccc(O)cc1)NC(=O)[C@H](CCCCN)NC(=O)[C@H](CO)NC(=O)[C@H](Cc1ccc(O)cc1)NC(=O)[C@H](CC(=O)O)NC(=O)[C@H](CO)NC(=O)[C@@H](NC(=O)[C@H](Cc1ccccc1)NC(=O)[C@@H](NC(=O)CNC(=O)[C@H](CCC(N)=O)NC(=O)[C@H](CO)NC(=O)[C@@H](N)Cc1c[nH]cn1)[C@@H](C)O)[C@@H](C)O)C(=O)N[C@@H](C)C(=O)N[C@@H](C)C(=O)N[C@@H](Cc1c[nH]cn1)C(=O)N[C@@H](CC(=O)O)C(=O)N[C@@H](Cc1ccccc1)C(=O)N[C@H](C(=O)N[C@@H](CCC(=O)O)C(=O)N[C@@H](Cc1c[nH]c2ccccc12)C(=O)N[C@@H](CC(C)C)C(=O)N[C@@H](CC(C)C)C(=O)N[C@@H](CO)C(=O)N[C@@H](C)C(=O)O)C(C)C)C(=O)O [Compound 2, H-HSQGTFTSDYSKYLDS-K(Hexadecanoyl-isoGlu)-AAHDFVEWLLSA-OH] (H-HSQGTFTSDYSKYLDSK([γGlu-Palmitoyl])AAHDFVEWLLSA-OH) | 66
0.25 | 0.35 | 1.40 | 0.37 nM | CCCCCCCCCCCCCCCC(=O)N[C@@H](CCC(=O)NCCCC[C@H](NC(=O)[C@H](CO)NC(=O)[C@H](CC(=O)O)NC(=O)[C@H](CC(C)C)NC(=O)[C@H](Cc1ccc(O)cc1)NC(=O)[C@H](CCCCN)NC(=O)[C@H](CO)NC(=O)[C@H](Cc1ccc(O)cc1)NC(=O)[C@H](CC(=O)O)NC(=O)[C@H](CO)NC(=O)[C@@H](NC(=O)[C@H](Cc1ccccc1)NC(=O)[C@@H](NC(=O)CNC(=O)[C@H](CCC(N)=O)NC(=O)[C@H](CO)NC(=O)[C@@H](N)Cc1c[nH]cn1)[C@@H](C)O)[C@@H](C)O)C(=O)N[C@@H](C)C(=O)N[C@@H](C)C(=O)N[C@@H](Cc1c[nH]cn1)C(=O)N[C@@H](CC(=O)O)C(=O)N[C@@H](Cc1ccccc1)C(=O)N[C@H](C(=O)N[C@@H](CCC(=O)O)C(=O)N[C@@H](Cc1c[nH]c2ccccc12)C(=O)N[C@@H](CC(C)C)C(=O)N[C@@H](CC(C)C)C(=O)N[C@@H](CCCNC(=N)N)C(=O)O)C(C)C)C(=O)O [Compound 9, H-HSQGTFTSDYSKYLDS-K(Hexadecanoyl-isoGlu)-AAHDFVEWLLR-OH] (H-HSQGTFTSDYSKYLDSK([γGlu-Palmitoyl])AAHDFVEWLLR-OH) | 57
